Experimental data: PMC6152416, “Pharmacological and Toxicological Screening of Novel Benzimidazole-Morpholine Derivatives as Dual-Acting Inhibitors” (Molecules : A Journal of Synthetic Chemistry and Natural …, 2017)

Key:
[1] = Ames MPF genotoxicity assay; type: cell-based, Salmonella typhimurium; details: Salmonella typhimurium; TA100, with/without S9, each concentration level; read-out: fold inductions over baseline
Description: The genotoxicity of selected compounds (2b, 2j, 2m) was determined by Ames assay using Ames MPF 98/100 mutagenicity assay sample kit (Xenometrix AG, Allschwil, Switzerland) as previously described elsewhere. Salmonella typhimurium strains, TA98 (frameshift mutations) and TA100 (base-pair substitutions) were used in the assay. The concentration of the compounds was between 16 and 5000 μg/mL, in accordance with the guideline. Compounds were prepared in six different concentrations (5.0, 2.5, 1.25, 0.625, 0.3125, 0.156 mg/mL) in DMSO. Mutagenic potential was determined in the absence or presence of Aroclor™-1254 induced male Sprague–Dawley rat liver microsomal enzyme (S9) mix (Xenometrix AG). Positive controls without S9 mix were 2-nitrofluorene (2.0 μg/mL) and 4-nitroquinoline N-oxide (0.1 μg/mL), whereas 1.0 μg/mL and 2.5 μg/mL of 2-aminoanthracene solutions were used as positive controls with S9 against TA98 and TA100, respectively. Solvent control was prepared with 4% DMSO. The end of an experiment was determined by the change of the indicator medium colour to yellow, which was originating from the decrease of pH due to revertant bacteria. Yellow wells were counted as positive, and compared with the negative control. Fold induction over the negative control and fold induction over the baseline were calculated (Fold induction over the negative control is accepted as the ratio of the mean number of positive wells for the dose concentration divided by the mean number of positive wells for the zero dose (negative) control. Fold induction over the baseline is accepted as the ratio of the mean number of positive wells for the dose concentration divided by zero dose baseline. The zero-dose baseline is obtained by adding one standard deviation to the mean number of positive wells of the zero dose control. If the baseline is less than 1, the value is set to 1 for calculation).
Mutagenicity was determined according to the criteria reported previously. For a baseline value of ≤3, significant increases between 2 and 3-fold of the baseline were classified as weak mutagen, and increases ≥3-fold of the baseline were classified as mutagen. […] As a rule, at least two adjacent doses with significant increases or a significant increase at the highest dose level should be observed for a mutagenic compound. All of the doses were compared according to Student’s t-test at p < 0.05 for statistical significance.

human recombinant MAO-B = biological target: T1, human recombinant MAO-B (Homo sapiens, UniProt P27338); assay: MAO inhibition assay (kynuramine, fluorimetric); type: biochemical
T1 sequence (P27338 1-520): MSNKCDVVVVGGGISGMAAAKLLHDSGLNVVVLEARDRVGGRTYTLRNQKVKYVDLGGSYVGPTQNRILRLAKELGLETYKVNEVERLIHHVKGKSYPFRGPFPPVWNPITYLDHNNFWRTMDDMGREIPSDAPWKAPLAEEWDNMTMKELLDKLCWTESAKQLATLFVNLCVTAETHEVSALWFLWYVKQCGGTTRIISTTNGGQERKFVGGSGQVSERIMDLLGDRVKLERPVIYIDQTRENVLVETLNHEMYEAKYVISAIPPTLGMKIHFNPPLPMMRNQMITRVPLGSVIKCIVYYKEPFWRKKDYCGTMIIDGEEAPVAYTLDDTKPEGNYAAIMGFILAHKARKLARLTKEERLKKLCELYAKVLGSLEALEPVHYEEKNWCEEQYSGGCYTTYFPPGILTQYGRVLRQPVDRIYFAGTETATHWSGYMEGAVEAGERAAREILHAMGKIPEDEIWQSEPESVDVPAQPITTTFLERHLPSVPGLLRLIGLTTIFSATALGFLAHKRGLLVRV

Structure (SMILES)	fold induction [1]	MAO-B Inhibition (%) (human recombinant MAO-B; 10^-3 M)	MAO-B Inhibition (%) (human recombinant MAO-B; 10^-4 M)
COc1ccc(-c2nc3ccccc3n2CCN2CCOCC2)cc1 [Compound 2b, 2-(4-Methoxyphenyl)-1-[2-(morpholin-4-yl)ethyl]-1H-benzimidazole]	< 1.5	32.44	31.75
Clc1ccc(-c2nc3ccccc3n2CCN2CCOCC2)cc1 [Compound 2c, 2-(4-Chlorophenyl)-1-[2-(morpholin-4-yl)ethyl]-1H-benzimidazole]	–	41.12	33.54
CC(C)c1ccc(-c2nc3ccccc3n2CCN2CCOCC2)cc1 [Compound 2e, 2-(4-Isopropylphenyl)-1-[2-(morpholin-4-yl)ethyl]-1H-benzimidazole]	–	35.47	26.65
CCOc1ccc(-c2nc3ccccc3n2CCN2CCOCC2)cc1 [Compound 2j, 2-(4-Ethoxyphenyl)-1-[2-(morpholin-4-yl)ethyl]-1H-benzimidazole]	–	41.73	32.44
FC(F)(F)Oc1ccc(-c2nc3ccccc3n2CCN2CCOCC2)cc1 [Compound 2m, 2-(4-Trifluoromethoxyphenyl)-1-[2-(morpholin-4-yl)ethyl]-1H-benzimidazole]	< 1.5	25.84	12.43
